Measured values from PubChem BioAssay AID330 (DTP/NCI, 2004).
Several values for one entry are separate records, joined by “and”; a condition that tells them apart may be missing. Identical values can stand only once. Inconclusive results and toxic doses are left out. Bridge positions count the residues as written; N and C are the ends. Peptide text beside a SMILES is read from it. I, II: the chains in the order shown. * marks the point of attachment. Cbz = O=C(OCc1ccccc1)*

Tested on: P388 leukemia ip, CD2F1 mice, survival T/C
Assay: NCI In Vivo Anticancer Drug Screen. Data for tumor model P388 Leukemia (intraperitoneal) in CD2F1 (CDF1) mice
Conditions: endpoint: median survival time, higher = longer survival
Method in brief: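 Mice carrying the transplanted tumor received test compound or vehicle. Survival was recorded in each group, and the value is the treated-group measurement divided by that of the vehicle-treated control group.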

[1] = dose: 50.0 mg/kg/injection, schedule: Q01DX009 (ip), vehicle: saline with Tween-80
[2] = dose: 100.0 mg/kg/injection, schedule: Q01DX009 (ip), vehicle: saline with Tween-80
[3] = dose: 50.0 mg/kg/injection, schedule: Q01DX005 (ip), vehicle: saline with Tween-80
[4] = dose: 100.0 mg/kg/injection, schedule: Q01DX005 (ip), vehicle: saline with Tween-80
[5] = dose: 200.0 mg/kg/injection, schedule: Q01DX005 (ip), vehicle: saline with Tween-80

SMILES: O=C1c2ccc([N+](=O)[O-])cc2NC(O)c2cccn21 (centres undefined)
- T/C (dose: 0.1 mg/kg/injection, schedule: Q01DX005 (ip), vehicle: water): 96 % of control
- T/C (dose: 0.2 mg/kg/injection, schedule: Q01DX005 (ip), vehicle: water): 96 % of control
- T/C (dose: 0.4 mg/kg/injection, schedule: Q01DX005 (ip), vehicle: water): 91 % of control
- T/C (dose: 0.8 mg/kg/injection, schedule: Q01DX005 (ip), vehicle: water): 96 % of control
- T/C (dose: 1.6 mg/kg/injection, schedule: Q01DX005 (ip), vehicle: water): 96 % of control
- T/C (dose: 5.0 mg/kg/injection, schedule: Q01DX005 (ip), vehicle: distilled water + Tween-80): 99 % of control
- T/C (dose: 10.0 mg/kg/injection, schedule: Q01DX005 (ip), vehicle: distilled water + Tween-80): 95 % of control
- T/C (dose: 20.0 mg/kg/injection, schedule: Q01DX005 (ip), vehicle: distilled water + Tween-80): 95 % of control
- T/C (dose: 40.0 mg/kg/injection, schedule: Q01DX005 (ip), vehicle: distilled water + Tween-80): 91 % of control
- T/C (dose: 80.0 mg/kg/injection, schedule: Q01DX005 (ip), vehicle: distilled water + Tween-80): 91 % of control

SMILES: Cc1ccc(S(=O)(=O)N/N=C/c2cc([N+](=O)[O-])cc(I)c2O)cc1
- T/C (dose: 12.5 mg/kg/injection, schedule: Q01DX005 (ip), vehicle: distilled water + Tween-80): 102 % of control
- T/C (dose: 25.0 mg/kg/injection, schedule: Q01DX005 (ip), vehicle: distilled water + Tween-80): 109 % of control
- T/C (dose: 50.0 mg/kg/injection, schedule: Q01DX005 (ip), vehicle: distilled water + Tween-80): 98 % of control and 112 % of control
- T/C (dose: 100.0 mg/kg/injection, schedule: Q01DX005 (ip), vehicle: distilled water + Tween-80): 98 % of control and 102 % of control
- T/C (dose: 200.0 mg/kg/injection, schedule: Q01DX005 (ip), vehicle: distilled water + Tween-80): 122 % of control and 95 % of control
- T/C (dose: 400.0 mg/kg/injection, schedule: Q01DX005 (ip), vehicle: distilled water + Tween-80): 93 % of control

SMILES: N#Cc1[nH]nc(N)c1C#N
- T/C (dose: 100.0 mg/kg/injection, schedule: Q01DX001 (ip), vehicle: water): 103 % of control
- T/C (dose: 200.0 mg/kg/injection, schedule: Q01DX001 (ip), vehicle: water): 103 % of control
- T/C (dose: 400.0 mg/kg/injection, schedule: Q01DX001 (ip), vehicle: water): 98 % of control

SMILES: C1CSC(CCC2SCCCS2)SC1
- T/C [1]: 92 % of control
- T/C [2]: 90 % of control
- T/C (dose: 200.0 mg/kg/injection, schedule: Q01DX009 (ip), vehicle: saline with Tween-80): 87 % of control

SMILES: CCOC(=O)CC1CCCN1Sc1ccc([N+](=O)[O-])cc1[N+](=O)[O-] (centres undefined)
- T/C [3]: 100 % of control
- T/C [4]: 101 % of control
- T/C [5]: 100 % of control

SMILES: CC(C)(C)SC(=O)C[Si](C)(C)C
- T/C (dose: 50.0 mg/kg/injection, schedule: Q04DX003 (ip), vehicle: saline with Tween-80): 103 % of control and 105 % of control
- T/C (dose: 100.0 mg/kg/injection, schedule: Q04DX003 (ip), vehicle: saline with Tween-80): 107 % of control and 94 % of control
- T/C (dose: 200.0 mg/kg/injection, schedule: Q04DX003 (ip), vehicle: saline with Tween-80): 111 % of control and 118 % of control
- T/C (dose: 400.0 mg/kg/injection, schedule: Q04DX003 (ip), vehicle: saline with Tween-80): 110 % of control

SMILES: NC(CSSCC(N)C(=O)NC(Cc1ccc(O)cc1)C(=O)O)C(=O)NC(Cc1ccc(O)cc1)C(=O)O (stereo not drawn) (I: H-Cys-Tyr-OH / II: H-Cys-Tyr-OH; disulfide I:1-II:1; configuration not given here)
- T/C (dose: 50.0 mg/kg/injection, schedule: Q01DX005 (ip), vehicle: saline): 110 % of control
- T/C (dose: 100.0 mg/kg/injection, schedule: Q01DX005 (ip), vehicle: saline): 111 % of control
- T/C (dose: 200.0 mg/kg/injection, schedule: Q01DX005 (ip), vehicle: saline): 103 % of control

SMILES: COc1cccc2c1C(=O)c1c(O)c3c(c(O)c1C2=O)C[C@@](O)(C(C)=O)C[C@@H]3OC1CC(NC(=O)C(N)CCN)C(O)C(C)O1 (some centres undefined)
- T/C (dose: 5.0 mg/kg/injection, schedule: Q04DX003 (ip), vehicle: water): 96 % of control
- T/C (dose: 10.0 mg/kg/injection, schedule: Q04DX003 (ip), vehicle: water): 94 % of control
- T/C (dose: 20.0 mg/kg/injection, schedule: Q04DX003 (ip), vehicle: water): 99 % of control
- T/C (dose: 40.0 mg/kg/injection, schedule: Q04DX003 (ip), vehicle: water): 105 % of control
- T/C (dose: 80.0 mg/kg/injection, schedule: Q04DX003 (ip), vehicle: water): 118 % of control
- T/C (dose: 160.0 mg/kg/injection, schedule: Q04DX003 (ip), vehicle: distilled water + Tween-80): 106 % of control
- T/C (dose: 320.0 mg/kg/injection, schedule: Q04DX003 (ip), vehicle: distilled water + Tween-80): 105 % of control

SMILES: CN(C)c1cccc2c(S(=O)(=O)NCCCCCCCCCCCCN)cccc12
- T/C (dose: 100.0 mg/kg/injection, schedule: Q01DX001 (ip), vehicle: saline + Tween-80 + alcohol): 105 % of control

SMILES: CC[n+]1ccc(Nc2ccc(NC(=O)c3ccc(Nc4cc[n+](CC)c5ccc([N+](=O)[O-])cc45)cc3)cc2)cc1
- T/C (dose: 11.0 mg/kg/injection, schedule: Q01DX009 (ip), vehicle: Klucel (hydroxypropylcellulose) (HPC)): 162 % of control and 200 % of control
- T/C (dose: 16.0 mg/kg/injection, schedule: Q01DX009 (ip), vehicle: Klucel (hydroxypropylcellulose) (HPC)): 215 % of control
- T/C (dose: 16.5 mg/kg/injection, schedule: Q01DX009 (ip), vehicle: Klucel (hydroxypropylcellulose) (HPC)): 226 % of control
- T/C (dose: 22.0 mg/kg/injection, schedule: Q04DX003 (ip), vehicle: saline): 175 % of control
- T/C (dose: 24.0 mg/kg/injection, schedule: Q01DX009 (ip), vehicle: Klucel (hydroxypropylcellulose) (HPC)): 200 % of control
- T/C (dose: 25.0 mg/kg/injection, schedule: Q04DX003 (ip), vehicle: saline): 154 % of control
- T/C (dose: 33.0 mg/kg/injection, schedule: Q04DX003 (ip), vehicle: saline): 175 % of control
- T/C (dose: 50.0 mg/kg/injection, schedule: Q04DX003 (ip), vehicle: saline): 180 % of control

SMILES: COc1ccc(C2c3cc4c(cc3OC(N3CCCC3)C2C)OCO4)c(OC)c1 (centres undefined)
- T/C (dose: 60.0 mg/kg/injection, schedule: Q01DX005 (ip), vehicle: saline with Tween-80): 99 % of control
- T/C (dose: 120.0 mg/kg/injection, schedule: Q01DX005 (ip), vehicle: saline with Tween-80): 99 % of control
- T/C (dose: 240.0 mg/kg/injection, schedule: Q01DX005 (ip), vehicle: saline with Tween-80): 97 % of control

SMILES: COC(=O)C(C)c1cc2ccccc2[nH]1 (centres undefined)
- T/C (dose: 25.0 mg/kg/injection, schedule: Q01DX009 (ip), vehicle: saline with Tween-80): 100 % of control
- T/C [1]: 99 % of control
- T/C [2]: 113 % of control

SMILES: COc1ccc2c(C#N)cc3c(c[n+](C)c4ccccc34)c2c1
- T/C (dose: 12.5 mg/kg/injection, schedule: Q04DX003 (ip), vehicle: distilled water + Tween-80): 105 % of control
- T/C (dose: 25.0 mg/kg/injection, schedule: Q04DX003 (ip), vehicle: distilled water + Tween-80): 115 % of control

SMILES: O=S(=O)(/C=C/c1ccc(F)cc1)Cc1ccccc1
- T/C [3]: 92 % of control
- T/C [4]: 92 % of control
- T/C [5]: 90 % of control

SMILES: COCCOCCOCCOCCOCCOCCOCCOCCOCCOCCOCCOCCOCCOCCOC(=O)CCn1cc(F)c(=O)[nH]c1=O
- T/C (dose: 34.0 mg/kg/injection, schedule: Q04DX002 (ip), vehicle: saline): 97 % of control
- T/C (dose: 68.0 mg/kg/injection, schedule: Q04DX002 (ip), vehicle: saline): 111 % of control
- T/C (dose: 136.0 mg/kg/injection, schedule: Q04DX002 (ip), vehicle: saline): 102 % of control
- T/C (dose: 272.0 mg/kg/injection, schedule: Q04DX002 (ip), vehicle: saline): 100 % of control

SMILES: CC(C)n1cccc(C#N)c1=S
- T/C (dose: 50.0 mg/kg/injection, schedule: Q01DX005 (ip), vehicle: Klucel (hydroxypropylcellulose) (HPC)): 101 % of control
- T/C (dose: 100.0 mg/kg/injection, schedule: Q01DX005 (ip), vehicle: Klucel (hydroxypropylcellulose) (HPC)): 98 % of control
- T/C (dose: 200.0 mg/kg/injection, schedule: Q01DX005 (ip), vehicle: Klucel (hydroxypropylcellulose) (HPC)): 97 % of control

SMILES: COc1cc(CN2CCCCC2)cc2cc(C(=O)O)c(=O)oc12
- T/C [3]: 103 % of control
- T/C [4]: 101 % of control
- T/C [5]: 100 % of control

SMILES: O=C1NC(=O)C(=C2C(=O)COC2=O)C(=O)N1
- T/C (dose: 60.0 mg/kg/injection, schedule: Q01DX005 (ip), vehicle: saline): 103 % of control
- T/C (dose: 120.0 mg/kg/injection, schedule: Q01DX005 (ip), vehicle: saline): 106 % of control
- T/C (dose: 240.0 mg/kg/injection, schedule: Q01DX005 (ip), vehicle: saline): 104 % of control

SMILES: Fc1ccc(Nc2nnc(-c3ccc(Cl)cc3Cl)o2)cc1
- T/C (dose: 12.5 mg/kg/injection, schedule: Q01DX005 (ip), vehicle: saline with Tween-80): 97 % of control
- T/C (dose: 25.0 mg/kg/injection, schedule: Q01DX005 (ip), vehicle: saline with Tween-80): 99 % of control
- T/C [3]: 93 % of control and 97 % of control
- T/C [5]: 96 % of control

SMILES: O=C(NC(Cc1ccc(O)cc1)C(=O)NC(Cc1ccccc1)C(=O)O)OCc1ccccc1 (stereo not drawn) (Cbz-Tyr-Phe-OH; configuration not given here)
- T/C [3]: 102 % of control
- T/C [4]: 106 % of control
- T/C [5]: 104 % of control
